{"source": "patent US4540709A", "about": "“Method for treatment of diseases mediated by PAF using 5-allyl-2-(3,4-Dimethoxyphenyl)-3a,α-methoxy-3-methyl-2,3,3a,6-tet rahydro-6-oxobenzofuran” (Merck & Co., Inc., priority 1983, dated 1985)", "key": {"[1]": {"tested_on": "PAF-induced cutaneous vascular permeability", "assay": "Inhibition of PAF-induced increase of cutaneous vasopermeability, oral activity (Evans Blue)", "type": "in vivo", "settings": "guinea pig", "excerpt": "The specific PAF-antagonistic activities are further established by an in vivo assay (modified procedure of Humphrey et al., Lab. Investigation 46, 422 (1982)) following the protocol described below:\nProtocol for the evaluation of the oral activity of PAF antagonists or the inhibition of PAF-induced increase of vasopermeability by PAF-antagonists\nI. Animal species: 5 guinea pigs (400-500 g)\n0.5% (w/v) aqueous methylcellulose solution sodium nembutol\n2% Evans Blue solution: 2 g of Evans Blue in 100 ml of pH 7.5 Tris-buffer solution\nTris-Buffer solution: 150 mM NaCl and 10 mM Tris in […] of water with pH adjusted to 7.5.\n1. Weigh the guinea pigs. Label them as control, T1, T2, T3 and T4.\n2. Fast the animals overnight.\n3. Weigh the animals again after the fasting.\n4. Ground and suspend a PAF antagonist such as compound (I) with intensive sonication in 3 ml of 0.5% aqueous methylcellulose solution.\n5. Administer orally to each of the animals T1, T2, T3 and T4 an appropriate amount (in terms of mg/kg of bodyweight) of the antagonist solution from 4.), except the control animal which should receive only the 0.5% aq. methylcellulose solution.\n6. Forty minutes after the oral administration, anesthetize the animals with sodium nembutol (0.75 ml/kg i.p.).\n7. After 20 minutes or when tne anesthetics became effective, inject intracardially to each animal 2 ml/kg body weight of the 2% Evans Blue solution.\n8. Wait for 10 minutes. In the meantime, shave the backs of the guniea pigs and get ready for the PAF injection. Select two rows of 5 (a total of ten) sites on the back of each animal and designate them as sites […]\n______________________________________\nand inject intracutaneously, in duplicate 0.1 ml of a PAF solution in Tris-buffer or 0.1 ml of the Tris-buffer itself (control) according to the following schedule: […]\nSites Solution to be injected […]\n15. Measure the absorbance of each supernatant from Step (14) (\"skin sample\") as well as the plasma extract from Step (13) (\"plasma sample\") at 620 nm with a Cary 210 spectrophotometer (Varian, Palo Alto, Calif.). […]"}, "human platelets": {"tested_on": "human platelets", "assay": "PAF-induced platelet aggregation (human platelets)", "type": "cell-based", "settings": "in vitro"}, "guinea pig ileum": {"tested_on": "guinea pig ileum", "assay": "Histamine-induced ileum contraction in guinea pigs"}, "[2]": {"molecular_target": "T1, PAF specific receptor binding site on rabbit platelet plasma membranes (Oryctolagus cuniculus, UniProt G1TEI7)", "T1 construct": "from tissue; host or cells: rabbit platelet plasma membranes", "T1 sequence (G1TEI7 1-342)": "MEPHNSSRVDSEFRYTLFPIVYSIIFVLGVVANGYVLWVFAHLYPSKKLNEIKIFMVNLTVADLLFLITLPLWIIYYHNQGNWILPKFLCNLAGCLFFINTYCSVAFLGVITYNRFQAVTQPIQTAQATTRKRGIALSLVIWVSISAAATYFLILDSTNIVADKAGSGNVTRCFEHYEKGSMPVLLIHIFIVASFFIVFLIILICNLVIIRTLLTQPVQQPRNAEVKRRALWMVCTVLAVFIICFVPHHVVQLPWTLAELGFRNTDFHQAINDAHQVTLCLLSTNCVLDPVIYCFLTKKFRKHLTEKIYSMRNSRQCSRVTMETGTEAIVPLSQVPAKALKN", "assay": "Inhibition of 3H-PAF binding to rabbit platelet plasma membrane", "settings": "in vitro, 0° C., pH 7.5", "protocol": "In vitro, compound (I) inhibits PAF-induced functions in both the cellular and the tissue levels by disturbing the PAF binding to its specific receptor site. The ability of compound (I) to inhibit the PAF binding to its specific receptor binding site on rabbit platelet plasma membranes was measured by an assay recently developed by us.\nThe inhibition of H^3 -PAF binding to the rabbit platelet plasma membrane by compound (I) was determined by a method employing isotopic labeling and filtration techniques. Generally, a series of Tris-buffered solutions of the selected antagonist at predetermined concentrations were prepared. […] Ten […] of scintillation solution (Aquasol 2, New England Nuclear, Connecticut) was added with stirring to each filter containing the washed residue, and the radioactivity of each resulting suspension was counted in a Packard Tri-Carb 460CD Liquid Scintillation System. Defining the counts from a test sample as \"Total binding with antagonist\"; the counts from the control sample C1, as \"Total binding C1 \"; and the counts from the control sample C2 as \"non-specific binding C2 \", the percent inhibition of each test antagonist can be determined by the following equation: [formula]"}, "[3]": {"tested_on": "guinea pig peritoneal PMN (polymorphonuclear leukocytes)", "assay": "PAF-induced guinea pig peritoneal PMN aggregation", "type": "cell-based", "settings": "in vitro"}, "guinea pig smooth muscle": {"tested_on": "guinea pig smooth muscle", "assay": "PAF-induced guinea pig smooth muscle contraction", "settings": "in vitro"}, "rabbit platelets": {"tested_on": "rabbit platelets", "assay": "PAF-induced platelet aggregation (rabbit platelets)", "type": "cell-based", "settings": "in vitro"}, "human PMN": {"tested_on": "human PMN", "assay": "PAF-induced human PMN secretion", "type": "cell-based", "settings": "in vitro"}, "H1": {"tested_on": "H1", "assay": "Binding of H1 antagonist (3H-pyrilamine) to guinea pig brain membrane"}}}
{"smiles": "C=CCC1=CC2(OC)C(=CC1=O)OC(c1ccc(OC)c(OC)c1)C2C", "note": "(stereo not drawn) [Compound (I), 5-allyl-2-(3,4-dimethoxyphenyl)-3a,α-methoxy-3-methyl-2,3,3a,6-tetrahydro-6-oxobenzofuran]", "values": [{"measurement": "% inhibition", "setting": "[1]; 25 mg/kg P.O.", "value": 43, "unit": "%"}, {"measurement": "% inhibition", "setting": "[1]; 50 mg/kg P.O.", "value": 63, "unit": "%"}, {"measurement": "ED50", "setting": "[1]; Cavia porcellus, po, P.O.", "value": 30, "unit": "mg/kg"}, {"measurement": "inhibition of PAF-induced platelet aggregation", "setting": "human platelets", "value": "inhibits"}, {"measurement": "inhibition of histamine-induced ileum contraction", "setting": "guinea pig ileum", "value": "no or only minute inhibition"}, {"measurement": "IC50", "setting": "[2]", "value": 174, "unit": "nM"}, {"measurement": "inhibition of PAF-induced peritoneal PMN aggregation", "setting": "[3]", "value": "inhibits"}, {"measurement": "inhibition of PAF-induced smooth muscle contraction", "setting": "guinea pig smooth muscle", "value": "inhibits"}, {"measurement": "inhibition of PAF-induced platelet aggregation", "setting": "rabbit platelets", "value": "inhibits"}, {"measurement": "inhibition of PAF-induced PMN secretion", "setting": "human PMN", "value": "inhibits"}, {"measurement": "inhibition of binding of H1 antagonist (3H-pyrilamine)", "setting": "H1", "value": "do not inhibit"}]}
